Measurements taken from patent US11872200B2, “GABA agonists in the treatment of disorders associated with metabolic syndrome and GABA combinations in treatment or prophylaxis of type I diabetes” (The Regents of the University of California, priority 2010, dated 2024).

Assays:
HFD-fed mice = assay: GABA in drinking water of high fat diet (HFD) fed mice; assay type: in vivo
Procedure: Mice were fed high fat diet (HFD) or “western diet” causing them to gain weight, become obese, and develop glucose intolerance, insulin resistance, and metabolic syndrome. The mice were provided either normal water, or water that contained GABA (6 mg/ml). The weight, food intake, water intake, glucose tolerance, insulin sensitivity and blood glucose levels of the mice was monitored over 5 months.

β-cells = assay: STZ oxidative-stress induced β-cell apoptosis, pancreas sections co-stained with TUNNEL and anti-insulin; assay type: in vivo, C57Bl/6 mice; settings: for relative area of insulin+ cells to the total area of the islets: 48 hours after STZ (FIG. 10C); for STZ mediated oxidative-stress-induced apoptosis: 48 hours after STZ, N=4 mice/group (FIG. 10A)
Procedure: C57Bl/6 mice received a moderate dose of STZ and then given plain water (control), water+GABA, or water+baclofen (a GABAB-R agonist). 48 hours later their pancreas were removed and sections co-stained with TUNNEL and anti-insulin.
N=4 mice/group, at least 100 islets analyzed per group.

Treg responses = assay: In vitro culture system with IL-2 and anti-CD3; assay type: cell-based; settings: preliminary data; IL-2 and anti-CD3 in an in vitro culture system
Description: It is noted that the GABA treatment can both suppress autoimmune responses by working on GABA-A receptors on immune cells, and promote B-cell survival through their GABA-B receptors.

newly diabetic NOD mice = assay: Reversal of hyperglycemia in newly diabetic NOD mice; assay type: in vivo; settings: GABA 6 mgs/ml in drinking water, GAD/alum 100 μg sc on day 1 and 14 (FIG. 9)
Procedure: Mice were considered diabetic after two blood glucose>250 mgs/dL. […] Data shown are blood glucose levels in individual mice given no treatment (FIG. 9A), GABA alone (6 mgs/ml in drinking water) (FIG. 9B), or GABA+GAD/alum (100 μg sc on day 1 and 14) (FIG. 9C).

[1] = system: syngenic islet grafts in diabetic NOD mice; assay: Syngenic islet graft survival in diabetic NOD mice; assay type: in vivo; settings: diabetic NOD mice treated 28 days, then NOD.scid islets under kidney capsule; 10 week observation period (FIG. 8)
Description: Mice were given insulin as needed. After 28 days the mice received NOD.scid islets under their kidney capsule and insulin treatment was discontinued. Data shown are individual mouse blood glucose levels post-transplantation (FIG. 8A-8D). […] Dashed line indicates blood glucose of 250 mgs/dL.

Compound: NCCCC(=O)O [GABA, 4-aminobutanoic acid]
- glucose tolerance (HFD-fed mice; GABA 6 mg/ml in water (FIG. 3)): improved
- insulin sensitivity (HFD-fed mice; GABA 6 mg/ml in water (FIG. 4)): improved
- fasting blood glucose levels (HFD-fed mice; GABA 6 mg/ml in water (FIG. 5)): reduced
- HFD-induced obesity (body weight) (HFD-fed mice; GABA 6 mg/ml in water (FIG. 6)): mitigated
- infiltration of macrophages into white adipose tissue (HFD-fed mice; GABA 6 mg/ml in water (FIG. 7, top panel)): inhibited
- mass of adipocytes (HFD-fed mice; GABA 6 mg/ml in water (FIG. 7 bottom panel)): significantly reduced
- insulin-expressing cells per 100 islet cells (β-cells; 48 hours after STZ (FIG. 10B)): preserving insulin-expressing β-cell s
- relative area of insulin+ cells to the total area of the islets (β-cells): preserve the area of insulin producing β-cells
- STZ mediated oxidative-stress-induced apoptosis (β-cells; GABA 2 mg/ml in water): significantly inhibits
- STZ mediated oxidative-stress-induced apoptosis (β-cells; GABA 6 mgs/ml in water): significantly inhibits
- Treg responses (Treg responses): can promote Treg responses
- reversal of hyperglycemia (newly diabetic NOD mice): prolongs a state of modest hyperglycemia for a short period, after which the mice progress to severe hyperglycemia
- time until mice became diabetic again after receiving the graft [1]: about 3 weeks

Compound: NCC(CC(=O)O)c1ccc(Cl)cc1 (racemic) [baclofen, (RS)-4-amino-3-(4-chlorophenyl)butanoic acid, reference compound]
- relative area of insulin+ cells to the total area of the islets (β-cells): greater β-cell area, but this did not reach the level of statistical significance
- STZ mediated oxidative-stress-induced apoptosis (β-cells; baclofen in water): significantly inhibits

Compound: insulin B-chain: β-cell antigen used as antigen-based therapy
- reversal of hyperglycemia (newly diabetic NOD mice): cannot reverse hyperglycemia

Compound: GAD/alum: glutamic acid decarboxylase (GAD) β-cell antigen vaccine given with alum adjuvant
- reversal of hyperglycemia (newly diabetic NOD mice): cannot reverse hyperglycemia
- time until mice became diabetic again after receiving the graft [1]: about 3 weeks
